In patent US20220308062A1, “METHODS FOR PREDICTING DRUG RESPONSIVENESS IN SAMPLES FROM CANCER SUBJECTS” (Board of Regents, The University of Texas System, priority 2019, published 2022):

How the values were obtained:
[1] = system: A549, H2009 and H226 cell lines; test: Wound healing (migration) assay; type: cell-based, human
Experimental: (§1) Analysis was performed using IncuCyte ZOOM (Essen BioScience) with images acquired every 3 hr for up to 72 hr. Four images (proliferation) and one image (wound healing) were captured per well for each time point. Data were normalized to controls, and values for 50% effective concentration were calculated using Prism V7.0 (GraphPad software, San Diego, Calif.).
(§2) In vitro phenotypic assay. […] Proliferation and migration curves were generated using IncuCyte ZOOM (Essen BioScience) with images acquired every 3 hr over a 72 hr timeframe. Images were captured per well for each time point. Data were normalized to controls, and values for 50% inhibitory concentration were calculated using Prism V8.0 (GraphPad software).

two other TAM family = settings: refs [21, 22]; concentration not given; cited from earlier work
A549 cells [2] = test: Atomic force microscopy, A549; type: cell-based, human; settings: A549, 40 nmol/L, 24 hr
Description: (§3) Atomic force microscopy. […] Briefly, live cells cultured were imaged in 60 mm dishes with a Nanoscope Catalyst AFM (Bruker, Billerica, Mass.) mounted on a Nikon Ti inverted epifluorescent microscope. […] To collect the nanomechanical phenotypes of single cells immersed in culture media, 30×30 μm images were captured with a resolution of 256×256 pixels using the PeakForce Quantitative Nanomechanical Mapping (QNM) AFM (Bruker, Billerica, Mass.). For imaging, […]-AIR (Bruker, Billerica, Mass.) probes were applied with the nominal spring constant 0.4 N/m. Following the Sneddon model and the Sokolov's rules, nanomechanical parameters were calculated with Nanoscope Analysis software v.1.7 (Bruker, Billerica, Mass.) using retrace images. Images of at least 15 cells representing each tested case in three biological replicates were collected.
(§4) Atomic force microscopy (AFM). […] Briefly, live cells cultured in 60 mm dishes were imaged with a Nanoscope Catalyst AFM (Bruker) mounted on a Nikon Ti inverted epifluorescent microscope. […] To collect the nanomechanical phenotypes of single cells immersed in culture media, 30×30 μm images were captured with a resolution of 256×256 pixels using the Peak Force Quantitative Nanomechanical Mapping (QNM) AFM (Bruker). For imaging, […]-AIR probes were used with the nominal spring constant 0.4 N/m. Following the Sneddon model and the Sokolov's rules, nanomechanical parameters were calculated with Nanoscope Analysis software v.1.7 using retrace images.

A549 cells [3] = test: RNA-seq of TP-0903-treated A549 cells; type: cell-based, human; settings: A549, 40 nmol/L
Experimental: RNA-seq. Total RNA was extracted from TP-0903-treated and AXL-knockdown A549 cells and from respective controls in two biological replicates by using the PureLink RNA Mini Kit (Thermo Fisher Scientific). Sequencing of cDNAs was performed with Illumina HiSeq3000 as per manufacturer's instructions. Paired-end FASTQ files were generated and aligned with the human reference genome GRCh38 by using STAR alignment software. RSEM was applied to quantify gene expression levels, and fragments per kilobase of transcript per million (FPKM) mapped reads were calculated. The different expression levels of genes were compared between control and treatment groups by using RSEM software. […] Both gene sets were used to perform pathway enrichment analysis on Gene Ontology Consortium (http://geneontology.org/) by using Reactome pathway databases in PANTHER [45, 46]. Significant pathways were further analyzed with gene sets downloaded from the Molecular Signatures Database v6.2 (http://software.broadinstitute.org/gsea/msigdb/). Fold changes of candidate genes were calculated on the basis of log FPKM values and used to generate heat maps.
RNA-seq. […] The RSEM software was applied to quantify expression levels, and fragments per kilo base of transcript per million (FPKM) mapped reads were calculated. […]

A549 and H2009 cells = test: CellTiter-Glo cell viability, TP-0903 and/or ruxolitinib; type: cell-based, human; settings: 20, 30 and 40 nmol/L, 72 hr
Experimental: Cell lines. A549 and H2009 cell lines were obtained from and authenticated by the American Type Culture Collection, and routinely maintained in RPMI-1640 medium supplemented 10% FBS, penicillin (100 units/mL) and streptomycin ([…]) in aired with 5% CO^2 at 37° C. The absence of Mycoplasma contamination was validated using DAPI staining. […] The CellTiter-Glo Luminescent Cell Viability assay was used to determine cell responsiveness. shRNA knockdown was performed in A549 cells by using lentiviral delivery of short-hairpin AXL or vehicle plasmid pLKO.1 puro in two biological repeats (Addgene; Table 3).

A549 cells [4] = test: Proliferation assay (IncuCyte ZOOM), A549; type: cell-based; settings: Homo sapiens, read-out: IC50 from proliferation curves
Experimental: as §1, §2

[5] = system: patients with advanced tumors; settings: early results, ref [21]; cited from earlier work
H2009 cells = test: Atomic force microscopy, H2009; type: cell-based, human
Description: as §3, §4

IC50 (A549 cells [4]): 31.6 nM
Compound: CN1CCN(Cc2ccc(Nc3ncc(Cl)c(Nc4ccccc4S(=O)(=O)N(C)C)n3)cc2)CC1 [TP-0903]
cytotoxicity based on cell morphology ([1]; A549 and H2009, increasing concentrations): did not result in significant cytotoxicity
migration potential ([1]; increasing concentrations, 0-200 nM): significantly impeded
inhibition of two other TAM family (two other TAM family): 80%
decreased deformation (A549 cells [2]): 25%
increase in stiffness (A549 cells [2]): 3 fold
increased adhesion (A549 cells [2]): 50%
IL-11 expression (RNA-seq) (A549 cells [3]): down-regulated significantly
IL-11 expression (RNA-seq) (A549 cells [3]; listed as TP0903): markedly downregulated
sensitivity (cell viability), A549 compared with H2009 (A549 and H2009 cells): more sensitive
tolerability in patients [5]: well tolerated
deformation (H2009 cells; H2009): not significantly affected
increase of adhesion (H2009 cells; H2009, 40 nmol/L, 24 hr): 35%
increase of stiffness (H2009 cells; H2009, 40 nmol/L, 24 hr): 61%
